Laboratory results: patent US20220105152A1, “Composition for and Method of Treating Hepatic Tissue Injury” (OHIO STATE INNOVATION FOUNDATION, priority 2019, published 2022)
Where two headings read alike, the source gives them in different places.

Legend:
[1] = test system: hepatocytes of C57BL/6J mice; assay: Confocal imaging of fluorescent-labelled rhMG53 transfer from bloodstream to liver; assay type: in vivo; details: FIG. 3
Excerpt: We determined that MG53 transfers from the circulatory system to the liver upon occurrence of DILI. We used a mouse model of acetaminophen-induced (APAP-induced) hepatic injury to determine whether MG53 can transfer from circulation to the liver to target the injured hepatocytes.

[2] = test system: APAP-induced hepatic injury in C57BL/6J mice; details: for therapeutic effect as determined by the survival rate: FIG. 8
[3] = test system: TAA chemical-induced liver injury in C57BL/6J mice; assay: TAA-induced liver injury in mice; assay type: in vivo; details: TAA 200 mg/kg, rhMG53 i.p. after injury; FIGS. 12, 13
Protocol: (§1) We also determined the efficacy of exogenous MG53 to protection against DILI caused by other chemicals. MG53 provided protective benefits when evaluated against carbon tetrachloride (CCl4) and thioacetamide (TAA). C57BL/6J mice were injected with CCl4 or TAA to cause chemical-induced liver injury and subsequently treated with MG53 via i.p. administration (Example 7). Liver tissue was biopsied and examined under microscope. The extent of necrotic tissue formation and the level of AST expression were quantified.

[4] = test system: primary hepatocytes from wild-type and dysferlin−/− mice; assay: Hypoxia/reoxygenation (H/R) injury of primary hepatocytes; assay type: cell-based; details: for cell viability of hepatocytes: 3 hours hypoxia, 3 hours reoxygenation, FIGS. 10A, 10B
Protocol: We also determined that the protective effect of MG53 could be extended beyond DILI to hypoxia/reoxygenation-induced (H/R-induced) liver injury. We isolated primary hepatocytes from wild-type and dysferlin−/− mice. […] With the addition of 10 μg/ml or 50 μg/ml of rhMG53, increased cell viability of hepatocytes was observed.
(§2) Primary hepatocytes were isolated from adult mice. To isolate primary murine hepatocytes, anesthetized and heparinized mice were subjected to a midline laparotomy and cannulation of the portal vein followed by liver perfusion with an EGTA-chelating perfusion buffer (190 mg EGTA, 900 mg glucose, 10 mL of 1 M HEPES, 400 mg KCl, 305 mg Na2HPO4.12H2O, 8 g NaCl, 88 mg Na2HPO4.2H2O, and 350 mg NaHCO3 into a final volume of 1 L of sterile dH2O). After perfusion with 0.4% collagenase buffer (560 mg CaCl2).2H2O, 10 mL of 1 M HEPES, 400 mg KCl, 305 mg Na2HPO4.12H2O, 8 g NaCl, 88 mg Na2HPO4. 2H2O, 350 mg NaHCO3, and 400 mg collagenase IV into a final volume of 1 L of sterile dH2O), livers were minced, and cells were dispersed in culture medium; hepatocytes and nonparenchymal cells were separated using low-speed centrifugation and 40% Percoll density gradient centrifugation.
Isolated mouse hepatocytes (2×10^5/well) were cultured on 24-well collagen-coated plates in William's Medium E (Gibco, Life Technologies, Foster City, Calif.) with 10% FBS at 37° C. with 5% CO2 for 4 hours. To assess the purity of primary hepatocytes, cells were subjected to BD Cytofix/Cytoperm and Fc Block (BD Biosciences) according to manufacturer's instructions. Hepatocytes were then stained with primary antibody against albumin (1 ug/1×10^6 cells; Novus Biologicals) and secondary AlexaFluor 594 antibody (1 ug/1×10^6 cells; Cellsignal) and analyzed by flow cytometry using a BD LSRFortessa (BD Bioscience)).

[5] = test system: APAP-treated hepatocytes; assay: Membrane integrity of APAP-treated hepatocytes (LDH release, fluorescent dye entry); assay type: cell-based; details: rhMG53 added to APAP-treated hepatocytes
Excerpt: (§3) We unexpectedly discovered that exogenous MG53 added to the circulatory system (blood) provides protection against hepatic tissue injury and provides therapeutic treatment of injured hepatic tissue. Addition of rhMG53 to APAP-treated hepatocytes improves membrane integrity and increases survival of the cells as evidenced by the reduced release of LDH and entry of fluorescent dyes. […] MG53 reduces MLKL phosphorylation and membrane translocation, thus leading to the […] of MLKL-mediated disintegration of the hepatocellular membrane. Through biochemical and molecular studies, we identified RIPK3 as an E3-ligase substrate for MG53. The systemically administered rhMG53 enters the injured hepatocytes to target polyubiquitination of RIPK3 for proteasome-dependent protein degradation. In this way, the intracellular action of MG53 adds defensive value to hepatocellular protection by reducing stress-induced activation of the RIPK3-MLKL death signaling.
HpeG2 were seeded in 35 mm glass bottom dishes at a density of 1×10^4 cells/cm^2 and incubated over overnight. […] After rinsing with Tyrode's solution, the cells were mixed with FM1-43 dye. […] Dye entry into the cells was monitored continuously with fluorescence confocal microscope (Eclipse Ti-U, Nikon Corporation, Tokyo, Japan) immediately after mixing with the dye. […]

[6] = test system: HepG2 hepatocytes; assay: MTT assay, APAP-injured HepG2; assay type: cell-based; details: rhMG53 10 or 50 μg/ml, APAP 10 mM, 24 h, FIG. 14A
Protocol: (§4) The data herein can be extrapolated to develop suitable protective doses for humans and large animals.
A hepatoma-derived HepG2 cell line was purchased from the China Cell Line Bank (Beijing China). Cells were cultured in DMEM containing 100 U/ml penicillin, 100 U/ml streptomycin, 10% FBS, and 3 mM glutamine at 37° C. with 95% air, and 5% CO2. […] Then, an MTT solution (5 mg/ml) was added to the cells, followed by incubation for another 4 h. Subsequently, the MTT solution was discarded, DMSO was added to each well, and absorbance was measured.

[7] = test system: mouse hepatocytes; assay: MTT assay, APAP-injured mouse hepatocytes; assay type: cell-based; details: rhMG53 10 or 50 μg/ml, APAP 10 mM, 24 h, FIG. 14B
Protocol: as §4, §2
A hepatoma-derived HepG2 cell line was purchased from the China Cell Line Bank (Beijing China). Cells were cultured in DMEM containing 100 U/ml penicillin, 100 U/ml streptomycin, 10% FBS, and 3 mM glutamine at 37° C. with 95% air, and 5% CO2. […] Subsequently, the MTT solution was discarded, DMSO was added to each well, and absorbance was measured.

[8] = test system: APAP-induced liver injury in mg53−/− mice; assay: APAP-induced hepatotoxicity in mg53−/− mice; assay type: in vivo
Protocol: We determined, however, that the amount of endogenous MG53 provided by the body is on its own insufficient to overcome DILI. Pilot studies were conducted to explore the dose dependence of APAP-induced hepatotoxicity in mice. […] Therefore, the 350 mg/kg dose was used for the comparative studies with mg53−/− mice and their littermate wild-type controls.
We also determined whether exogenous MG53 administered to a subject might be sufficient to prevent or reduce the severity of DILI.
mg53−/− mice and their wild type littermates were generated, bred and genotyped as previously described (Cai, C., et al. MG53 nucleates assembly of cell membrane repair machinery. Nature cell biology 11, 56-64 (2009); Cai, C., et al. MG53 regulates membrane budding and exocytosis in muscle cells. The Journal of biological chemistry 284, 3314-3322 (2009); Cai, C., et al. Membrane repair defects in muscular dystrophy are linked to altered interaction between MG53, caveolin-3, and dysferlin. The Journal of biological chemistry 284, 15894-15902 (2009)), the entire disclosures of which are hereby incorporated by reference. To ensure data reproducibility, mouse tail samples are retained and cataloged for secondary future validation, if necessary. The mg53−/− mouse line has been previously validated.

[9] = test system: HepG2 cells; assay: Propidium iodide staining of necrotic cell death after APAP; assay type: cell-based; details: rhMG53 and APAP vs APAP only; FIG. 11
Excerpt: We also determined that exogenous MG53 can reduce the extent of hepatic cell death following injury of hepatic tissue.

[10] = test system: MLKL; assay: MLKL phosphorylation and membrane translocation; assay type: cell-based
Excerpt: as §3, with “In this way, the intracellular action of MG53 adds defensive value to hepatocellular protection by reducing stress-induced activation of the RIPK3-MLKL death signaling.” left out
Crude extracts from dissected regions of the mouse liver were washed twice with ice-cold phosphate-buffered saline (PBS) and lysed in radio immunoprecipitation assay buffer (10 mM tris-HCl (pH 7.2), 150 mM NaCl, 1% NP-40, 0.5% SDS, and 0.5% deoxycholate), supplemented with a cocktail of protease inhibitors (Sigma) and phosphatase inhibitors (Thermo Scientific). […] Membranes were washed 3 times with TBS-T. Bound complexes were detected using the Odyssey Infrared Imaging System. Images were analyzed using the Odyssey Application Software to obtain the integrated intensities. […]

[11] = molecular target: T1, RIPK3 (Homo sapiens, UniProt Q9Y572); assay: Biochemical and molecular studies of E3-ligase substrate
T1 construct: endogenous in cells; host or cells: HepG2
Excerpt: as §3
Cell lysates (800 μg protein/mL supernatant) were incubated with anti-MG53 or anti-MLKL, anti-RIPK3 antibody (1 μg/mL) for 1 hour, and protein-G agarose at 4° C. for 12 hours. The immunoprecipitates were suspended in Laemmli buffer, boiled for 10 minutes, divided into 2 aliquots, electrophoresed, transferred, and subjected to immunoblotting with the anti-MLKL, anti-RIPK3, and anti-MG53 antibodies. […]

[12] = test system: CCl4 chemical-induced liver injury in C57BL/6J mice; assay: CCl4-induced liver injury in mice; assay type: in vivo; details: CCl4 2 ml/kg, rhMG53 i.p. after injury; FIGS. 12, 13
Protocol: as §1

T1 sequence (Q9Y572 whole entry): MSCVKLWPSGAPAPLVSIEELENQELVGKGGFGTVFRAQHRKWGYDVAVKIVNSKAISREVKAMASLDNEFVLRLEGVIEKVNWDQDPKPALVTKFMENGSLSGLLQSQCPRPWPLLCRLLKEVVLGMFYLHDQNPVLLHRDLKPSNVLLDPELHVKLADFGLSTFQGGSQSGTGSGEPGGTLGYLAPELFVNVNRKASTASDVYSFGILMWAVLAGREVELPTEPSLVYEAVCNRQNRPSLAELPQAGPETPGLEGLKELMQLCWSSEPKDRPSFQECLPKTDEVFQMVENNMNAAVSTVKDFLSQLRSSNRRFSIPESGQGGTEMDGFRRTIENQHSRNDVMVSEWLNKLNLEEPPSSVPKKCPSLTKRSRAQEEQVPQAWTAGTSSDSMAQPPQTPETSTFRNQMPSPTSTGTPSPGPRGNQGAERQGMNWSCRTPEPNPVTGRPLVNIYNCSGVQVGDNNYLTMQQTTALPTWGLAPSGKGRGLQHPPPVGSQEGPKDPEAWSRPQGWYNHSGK

Substance: Alexa647-rhMG53: rhMG53 protein conjugated with an Alexa647 fluorescent probe
- fluorescent signal in hepatocytes ([1]; 1 mg/kg intravenously prior to APAP 350 mg/kg i.p., injured hepatocytes): clearly visible
- fluorescent signal in liver ([1]; 1 mg/kg intravenously, untreated mouse liver (no APAP)): no Alexa647-rhMG53 signal was visible

Substance: rhMG53: recombinant human MG53 protein (mitsugumin 53, TRIM72) obtained by E. coli fermentation
- necrotic injury to the liver tissue ([2]; rhMG53 1 mg/kg 12 hours after APAP 300 mg/kg i.p.): reduced
- serum levels of AST ([2]; rhMG53 1 mg/kg 12 hours after APAP 300 mg/kg i.p., FIG. 9): reduction
- serum levels of AST ([2]; rhMG53 1.0 mg/kg i.p. 30 min before 350 mg/kg APAP, FIG. 6): reduced
- necrotic injuries to the mouse liver ([2]; rhMG53 1.0 mg/kg i.p. 30 min before 350 mg/kg APAP, FIG. 7A, 7B): ameliorated
- survival rate ([2]; rhMG53 1.0 mg/kg i.p. 30 minutes before 500 mg/kg APAP, FIG. 5): increased
- therapeutic effect as determined by the survival rate ([2]; rhMG53 1 mg/kg i.p. 1 h after APAP 500 mg/kg): most apparent
- therapeutic effect as determined by the survival rate ([2]; rhMG53 1 mg/kg i.p. 6 hours after APAP 500 mg/kg): still evident
- healing of liver tissue (immunofluorescent confocal imaging) ([2]; wt mice, exogenous MG53 before or after chemical-induced liver injury): improved healing
- liver tissue injury (necrotic tissue formation, AST level) [3]: protective activity
- cell viability of hepatocytes ([4]; 10 μg/ml): increased
- cell viability of hepatocytes ([4]; 50 μg/ml): increased
- AST in the culture medium ([4]; H/R-treated wild type hepatocytes): dose-dependent effect of rhMG53 in the reduction
- entry of fluorescent dyes [5]: reduced
- release of LDH [5]: reduced
- protective activity against APAP-induced injury (viability) [6]: dose-dependent protective activity
- protective activity against APAP-induced injury (viability) [7]: dose-dependent protective activity
- necrosis of hepatic tissue ([8]; exogenous MG53 administered to mg53−/− mice with injured liver tissue): substantial reduction
- serum levels of AST ([8]; mg53−/− mice receiving rhMG53 treatment, APAP 350 mg/kg): reduced
- healing of liver tissue (immunofluorescent confocal imaging) ([8]; mg53−/− mice, exogenous MG53 before or after chemical-induced liver injury): improved healing
- survival of the mg53−/− mice ([8]; rhMG53 1 mg/kg i.p. prior to APAP 350 mg/kg, FIG. 4): improved
- necrotic cell death (PI staining) [9]: significant reduction
- MLKL phosphorylation and membrane translocation [10]: reduces
- E3-ligase substrate identified [11]: RIPK3
- liver tissue injury (necrotic tissue formation, AST level) [12]: protective activity
